From patent US4481201A, “Pharmaceutical composition containing N,N^3 -di-(β-bromopropionyl)-N^1,N^2 -dispirotripiperazinium dichloride” (Vsesojuzny Nauchno-Issledovatelsky Khimoko-Farmasevtichesky …, priority 1981, dated 1984)

Columns and labels:
sarcoma 180 = assay: Growth of graft sarcoma 180 in mice; assay type: in vivo, noninbred white mice; details: mice; for It, % tumor growth suppression index / Change in the animal body weight, test: 6 injections
Excerpt: (§1) The antitumor activity has been studied on white rats weighing 110-130 g, as well as on white noninbred and inbred mice weighing 17-21 g with ligated tumors. The treatment is started 5-7 days transplanting of solid tumors and the following day after the transplanting of leukotic strains. Use has been made of the following transplantable strains of the tumors:
(§2) (2) noninbred white mice: sarcoma 180, sarcoma AK, sarcoma 37, carcinoma HK;
(§3) The compounds of the general formula (I), wherein X represents Cl^- (compound 1), Br^- (compound 2) are well-soluble in an isotonic solution of sodium chloride and they are administered intraperitoneally. The doses of the compounds have been calculated in mg per kg of the animal bodyweight.

[1] = Growth of graft sarcoma 180 in mice; assay type: in vivo, noninbred white mice; details: mouse, in vivo, ip; mice with sarcoma 180, repeated intraperitoneal administration; read-out: Maximum tolerable dose (MTD)
Excerpt: as §1, §2, §3

[2] = Growth of graft sarcoma 45 in rats; assay type: in vivo; details: rat, in vivo, ip, rats with sarcoma 45, repeated intraperitoneal administration; read-out: Maximum tolerable dose (MTD)
Excerpt: as §1
(§4) (1) rats: Ienssen's sarcoma, sarcoma 45, sarcoma M-1, sarcoma 536;
as §3

sarcoma 45 = assay: Growth of graft sarcoma 45 in rats; assay type: in vivo; details: rats
Excerpt: as §1, §4, §3

sarcoma AK = assay: Growth of graft sarcoma AK in mice; assay type: in vivo, noninbred white mice; details: mice
Excerpt: as §1, §2, §3

[3] = Growth of graft sarcoma AK in mice; assay type: in vivo, noninbred white mice; details: mouse, in vivo, ip; mice with sarcoma AK, repeated intraperitoneal administration; read-out: Maximum tolerable dose (MTD)
Excerpt: as §1, §2, §3

leukemia La = assay: Life span of mice with transplantable leukemia La; assay type: in vivo, inbred mice
Excerpt: as §1
(3) inbred mice: leukemia La, leukemia L1210 and P-388.
The activity of compounds relative to leukosis has been assessed by the life span (It) of treated animals as compared to the control ones. It --index of suppression of leukosis development is calculated by the formula: [formula]

[4] = Distribution of C^14-labeled preparation within organs and tissues of rats with sarcoma M-1; assay type: in vivo; details: rats with sarcoma M-1, intravenous
Excerpt: Furthermore, the particular distribution of the preparation according to the present invention within organs and tissues should also be noted.
In the case of administration of the preparation according to the present invention labeled with C^14, a higher level of radioactivity in blood is observed than in the case of prospidin labeled with C^14. A higher rate of accumulation of the preparation according to the present invention as compared to prospidin is observed in larynx, windpipe, bronchi, bone marrow, tumor and thyroid gland. The preparation according to the present invention labeled with C^14 is withdrawn from the organism within 24 hours after the intravenous administration mainly with urine, while C^14 --labeled prospidin is retained in the organism for a longer period.

[5] = Growth of graft Ienssen sarcoma in rats; assay type: in vivo; details: rat, in vivo, ip, rats with Ienssen sarcoma, repeated intraperitoneal administration; read-out: Maximum tolerable dose (MTD)
Excerpt: as §1, §4, §3

Solubility = assay type: physicochemical
Description: as §3
To a mixture of 3 g of N^1,N^2 -dispirotripiperazinium dichloride, 1.5 g of lithium hydroxide, 1 ml of water and 10 ml of ether a solution of 5.2 g of β-bromopropionic acid chlorid in 5 ml of ether is added under vigorous stirring and at a temperature of 5° to 10° C. The reaction mass is stirred for 2 hours at the temperature of 15° C. The residue is filtered off, dissolved in 10 ml of water; the resulting aqueous solution is poured in 100 ml of methanol.

[6] = 50 mg/kg intraperitoneally, 7 injections
[7] = 80 mg/kg intraperitoneally, 5 injections
[8] = 75 mg/kg intraperitoneally, 8 injections
[9] = 125 mg/kg intraperitoneally, 6 injections
[10] = mice with transplantable leukemia La

In the case of O=C(CCBr)N1CC[N+]2(CC1)CC[N+]1(CCN(C(=O)CCBr)CC1)CC2 [Compound 1, N,N^3 -di-(β-bromopropionyl)-N^1,N^2 -dispirotripiperazinium dichloride], the “tumor growth suppression class, Sarcoma 180” value (sarcoma 180) is reported as “++ (tumor growth suppression by 80-95%)”, the “It, % tumor growth suppression index” value (sarcoma 180; 25 mg/kg intraperitoneally) is reported as “+42%” and the “Change in the animal body weight, test” value (sarcoma 180; 75 mg/kg intraperitoneally) is reported as -4 g. For the same molecule, the “It, % tumor growth suppression index” value (sarcoma 180; 75 mg/kg intraperitoneally, 75 mg/kg) was “+74%”, the “It, % tumor growth suppression index” value (sarcoma 180; 75 mg/kg intraperitoneally, listed as preparation of the invention, 75 mg/kg) was 74% and the “Change in the animal body weight, test” value (sarcoma 180; 262 mg/kg intraperitoneally (MTD)) was -6 g. The MTD [1] was 262 mg/kg, the MTD [2] was 125 mg/kg and the “Change in the animal body weight, test” value (sarcoma 45; 20 mg/kg intraperitoneally, 7 injections) was -12 g. The “It, % tumor growth suppression index” value (sarcoma 45; 20 mg/kg intraperitoneally, 7 injections, 20 mg/kg) was 0%, the “Change in the animal body weight, test” value (sarcoma 45; [6]) was -8 g and the “It, % tumor growth suppression index” value (sarcoma 45; [6]) was “+61%”. The “Change in the animal body weight, test” value (sarcoma 45; [7]) was -9 g, the “It, % tumor growth suppression index” value (sarcoma 45; [7]) was “+99%” and the “Change in the animal body weight, test” value (sarcoma 45; 125 mg/kg intraperitoneally (MTD), 5 injections) was -3 g. For the same molecule, the “Change in the animal body weight, test” value (sarcoma AK; [8]) was -3 g, the “It, % tumor growth suppression index” value (sarcoma AK; [8]) was “+81%” and the “Change in the animal body weight, test” value (sarcoma AK; [9]) was -1 g. For the same molecule, the “It, % tumor growth suppression index” value (sarcoma AK; [9]) was “+62%”, the “It, % tumor growth suppression index” value (sarcoma AK; 200 mg/kg intraperitoneally, 5 injections) was “+64%” and the “Change in the animal body weight, test” value (sarcoma AK; 250 mg/kg intraperitoneally (MTD), 6 injections) was -3 g. The MTD [3] was 250 mg/kg, the “extension of life span of treated mice as compared to the control” value (leukemia La; leukemia La, MTD) was 3 times and the “It, % index of suppression of leukosis development” value (leukemia La; [10]) was 218%. The “Life span” value (leukemia La; [10]) was 21.2 ± 0.1 days, the “Coefficient of differential accumulation, Blood” value ([4]; 15 min) was 1.43 and the “Coefficient of differential accumulation, Bone marrow” value ([4]; 15 min) was 3.84. The “Coefficient of differential accumulation, Bronchi” value ([4]; 15 min) was 3.4, the “Coefficient of differential accumulation, Hypophysis” value ([4]; 15 min) was 6.3 and the “Coefficient of differential accumulation, Kidneys” value ([4]; 15 min) was 10.4. The “Coefficient of differential accumulation, Larynx” value ([4]; 15 min) was 4.15, the “Coefficient of differential accumulation, Liver” value ([4]; 15 min) was 0.94 and the “Coefficient of differential accumulation, Lungs” value ([4]; 15 min) was 0.95. The “Coefficient of differential accumulation, Lymphonodes” value ([4]; 15 min) was 0.69, the “Coefficient of differential accumulation, Spleen” value ([4]; 15 min) was 0.66 and the “Coefficient of differential accumulation, Thymus gland” value ([4]; 15 min) was 1.67. The “Coefficient of differential accumulation, Tumor” value ([4]; 15 min) was 1.76, the “Coefficient of differential accumulation, Tyroid gland” value ([4]; 15 min) was 3.5 and the “Coefficient of differential accumulation, Windpipe” value ([4]; 15 min) was 7.29. For the same molecule, the “Coefficient of differential accumulation, Blood” value ([4]; 30 min) was 0.91, the “Coefficient of differential accumulation, Bone marrow” value ([4]; 30 min) was 6.67 and the “Coefficient of differential accumulation, Bronchi” value ([4]; 30 min) was 2.83. The “Coefficient of differential accumulation, Hypophysis” value ([4]; 30 min) was 6.67, the “Coefficient of differential accumulation, Kidneys” value ([4]; 30 min) was 5.4 and the “Coefficient of differential accumulation, Larynx” value ([4]; 30 min) was 3.43. For the same molecule, the “Coefficient of differential accumulation, Liver” value ([4]; 30 min) was 0.69, the “Coefficient of differential accumulation, Lungs” value ([4]; 30 min) was 0.71 and the “Coefficient of differential accumulation, Lymphonodes” value ([4]; 30 min) was 0.11. The “Coefficient of differential accumulation, Spleen” value ([4]; 30 min) was 0.33, the “Coefficient of differential accumulation, Thymus gland” value ([4]; 30 min) was 0.71 and the “Coefficient of differential accumulation, Tumor” value ([4]; 30 min) was 0.91. The “Coefficient of differential accumulation, Tyroid gland” value ([4]; 30 min) was 2.73, the “Coefficient of differential accumulation, Windpipe” value ([4]; 30 min) was 4.62 and the “Coefficient of differential accumulation, Blood” value ([4]; 60 min) was 0.47. The “Coefficient of differential accumulation, Bone marrow” value ([4]; 60 min) was 3.78, the “Coefficient of differential accumulation, Bronchi” value ([4]; 60 min) was 1.7 and the “Coefficient of differential accumulation, Hypophysis” value ([4]; 60 min) was 5.13. The “Coefficient of differential accumulation, Kidneys” value ([4]; 60 min) was 2.6, the “Coefficient of differential accumulation, Larynx” value ([4]; 60 min) was 2.0 and the “Coefficient of differential accumulation, Liver” value ([4]; 60 min) was 0.76. For the same molecule, the “Coefficient of differential accumulation, Lungs” value ([4]; 60 min) was 0.86, the “Coefficient of differential accumulation, Lymphonodes” value ([4]; 60 min) was 0.69 and the “Coefficient of differential accumulation, Spleen” value ([4]; 60 min) was 0.32. The “Coefficient of differential accumulation, Thymus gland” value ([4]; 60 min) was 0.54, the “Coefficient of differential accumulation, Tumor” value ([4]; 60 min) was 0.57 and the “Coefficient of differential accumulation, Tyroid gland” value ([4]; 60 min) was 1.43. The “Coefficient of differential accumulation, Windpipe” value ([4]; 60 min) was 4.64, the “Coefficient of differential accumulation, Blood” value ([4]; 24 hours) was 0.05 and the “Coefficient of differential accumulation, Bone marrow” value ([4]; 24 hours) was 0.76. The “Coefficient of differential accumulation, Bronchi” value ([4]; 24 hours) was 0.24, the “Coefficient of differential accumulation, Hypophysis” value ([4]; 24 hours) was 4.12 and the “Coefficient of differential accumulation, Kidneys” value ([4]; 24 hours) was 0.53. For the same molecule, the “Coefficient of differential accumulation, Larynx” value ([4]; 24 hours) was 0.58, the “Coefficient of differential accumulation, Liver” value ([4]; 24 hours) was 0.32 and the “Coefficient of differential accumulation, Lungs” value ([4]; 24 hours) was 0.26. For the same molecule, the “Coefficient of differential accumulation, Lymphonodes” value ([4]; 24 hours) was 0.2, the “Coefficient of differential accumulation, Spleen” value ([4]; 24 hours) was 0.11 and the “Coefficient of differential accumulation, Thymus gland” value ([4]; 24 hours) was 0.2. For the same molecule, the “Coefficient of differential accumulation, Tumor” value ([4]; 24 hours) was 0.26, the “Coefficient of differential accumulation, Tyroid gland” value ([4]; 24 hours) was 0.48 and the “Coefficient of differential accumulation, Windpipe” value ([4]; 24 hours) was 0.6. For the same molecule, the MTD [5] was 160 mg/kg, the “solubility in an isotonic solution of sodium chloride” value (Solubility) was “well-soluble” and the “solubility in organic solvents” value (Solubility) was “substantially insoluble”. For the same molecule, the solubility in water (Solubility) was “well soluble”.
